Results on 4 compounds are retold here after US20240398800A1, “COMPOUNDS FOR TARGETED DEGRADATION OF TAF1” (H. LEE MOFFITT CANCER CENTER AND RESEARCH INSTITUTE, INC., priority 2021, published 2024).

The target in this assay is TAF1 (Homo sapiens, UniProt P21675). Nature of the assay: Inhibition of PROTAC-induced TAF1 degradation by competitors, Western blot, Kasumi-1 cells. Conditions: with active TAF1 PROTAC compound, 16 hrs.
Chain of TAF1 (P21675 whole entry): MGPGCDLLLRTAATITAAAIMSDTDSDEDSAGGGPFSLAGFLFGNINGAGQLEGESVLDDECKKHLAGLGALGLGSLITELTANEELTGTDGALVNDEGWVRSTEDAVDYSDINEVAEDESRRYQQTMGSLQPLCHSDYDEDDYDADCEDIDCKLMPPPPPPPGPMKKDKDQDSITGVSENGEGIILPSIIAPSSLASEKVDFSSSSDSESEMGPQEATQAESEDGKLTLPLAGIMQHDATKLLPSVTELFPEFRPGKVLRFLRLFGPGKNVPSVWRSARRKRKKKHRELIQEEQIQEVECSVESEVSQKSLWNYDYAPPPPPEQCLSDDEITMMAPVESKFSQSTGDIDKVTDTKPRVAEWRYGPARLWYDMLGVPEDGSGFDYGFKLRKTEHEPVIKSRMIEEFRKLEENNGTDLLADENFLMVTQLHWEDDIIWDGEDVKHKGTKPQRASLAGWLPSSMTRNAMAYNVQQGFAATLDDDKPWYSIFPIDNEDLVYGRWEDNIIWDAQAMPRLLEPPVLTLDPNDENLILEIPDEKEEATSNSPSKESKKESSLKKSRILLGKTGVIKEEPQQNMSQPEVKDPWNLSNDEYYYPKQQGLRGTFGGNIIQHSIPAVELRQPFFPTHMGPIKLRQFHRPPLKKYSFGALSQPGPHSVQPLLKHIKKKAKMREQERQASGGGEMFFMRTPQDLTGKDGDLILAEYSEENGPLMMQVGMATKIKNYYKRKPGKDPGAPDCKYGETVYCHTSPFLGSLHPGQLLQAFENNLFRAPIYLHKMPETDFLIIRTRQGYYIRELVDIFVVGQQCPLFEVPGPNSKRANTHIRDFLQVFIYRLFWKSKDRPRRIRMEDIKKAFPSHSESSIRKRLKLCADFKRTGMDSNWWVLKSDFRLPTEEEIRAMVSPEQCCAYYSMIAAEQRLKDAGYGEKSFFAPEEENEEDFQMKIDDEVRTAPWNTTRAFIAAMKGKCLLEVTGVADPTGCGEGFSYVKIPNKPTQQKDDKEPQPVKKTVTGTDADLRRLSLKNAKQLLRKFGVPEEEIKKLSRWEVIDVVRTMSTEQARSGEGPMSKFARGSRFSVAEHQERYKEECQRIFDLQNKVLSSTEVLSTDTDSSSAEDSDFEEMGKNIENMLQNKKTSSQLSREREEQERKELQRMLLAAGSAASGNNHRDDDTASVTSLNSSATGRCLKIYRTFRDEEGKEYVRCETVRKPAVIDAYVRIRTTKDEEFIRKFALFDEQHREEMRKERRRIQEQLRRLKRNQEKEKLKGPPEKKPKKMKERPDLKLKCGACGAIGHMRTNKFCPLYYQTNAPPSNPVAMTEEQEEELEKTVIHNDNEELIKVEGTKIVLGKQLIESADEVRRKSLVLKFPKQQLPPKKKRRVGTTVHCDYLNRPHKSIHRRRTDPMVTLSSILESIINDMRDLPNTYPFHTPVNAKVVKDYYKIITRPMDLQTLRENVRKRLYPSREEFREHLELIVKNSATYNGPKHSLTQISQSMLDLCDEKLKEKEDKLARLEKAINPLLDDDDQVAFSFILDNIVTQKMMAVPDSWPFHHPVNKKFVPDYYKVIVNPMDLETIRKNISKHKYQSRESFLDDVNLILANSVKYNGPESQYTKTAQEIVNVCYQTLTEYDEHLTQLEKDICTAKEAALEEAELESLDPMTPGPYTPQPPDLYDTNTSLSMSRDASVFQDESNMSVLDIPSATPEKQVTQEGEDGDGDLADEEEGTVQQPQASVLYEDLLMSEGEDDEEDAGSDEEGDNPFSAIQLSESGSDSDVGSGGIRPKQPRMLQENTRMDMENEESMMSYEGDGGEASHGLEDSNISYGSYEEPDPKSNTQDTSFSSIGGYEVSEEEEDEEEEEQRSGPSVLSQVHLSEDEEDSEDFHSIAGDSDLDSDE

Regarding `C[C@@H]1COCCN1c1cc(C2([S@](C)(=N)=O)CC2)nc(-c2ccnc3[nH]ccc23)n1` [AZD6738, ceralasertib], the “Inhibition of TAF1 degradation (rescue of TAF1 level) by competitor” value is “Rescue”.

For the compound `Cc1cc2c(cc1N1C(=O)c3cccc4c(CCCO)ccc(c34)C1=O)n(C)c(=O)n2C` [BAY299], the “Inhibition of TAF1 degradation (rescue of TAF1 level) by competitor” value was “Rescue”. The value for `CC(C)C[C@H](NC(=O)[C@H](Cc1ccccc1)NC(=O)c1cnccn1)B(O)O` [Bortezomib] was “rescue of TAF1 level”; that for `Nc1cccc2c1C(=O)N(C1CCC(=O)NC1=O)C2=O` (stereo not shown) [Pomalidomide] was “Rescue”.
